Laboratory results published in US8349824B2, “Triazolopyridine compounds” (Hoffmann-La Roche Inc., priority 2010, dated 2013).

What follows are compounds tested against T1, human PDE10A full length (Homo sapiens, UniProt Q9Y233) (assay: PDE10A Scintillation Proximity Assay (SPA), human PDE10A full length assay). Conditions: 50 nM cGMP + 50 nM [3H]-cGMP, 20 minutes at room temperature, read-out: PDE10A inhibition IC50.
T1 construct: purchased Enzo Life Science, Lausen, Switzerland SE-534
T1 sequence (Q9Y233 1-779 isoform Q9Y233-1): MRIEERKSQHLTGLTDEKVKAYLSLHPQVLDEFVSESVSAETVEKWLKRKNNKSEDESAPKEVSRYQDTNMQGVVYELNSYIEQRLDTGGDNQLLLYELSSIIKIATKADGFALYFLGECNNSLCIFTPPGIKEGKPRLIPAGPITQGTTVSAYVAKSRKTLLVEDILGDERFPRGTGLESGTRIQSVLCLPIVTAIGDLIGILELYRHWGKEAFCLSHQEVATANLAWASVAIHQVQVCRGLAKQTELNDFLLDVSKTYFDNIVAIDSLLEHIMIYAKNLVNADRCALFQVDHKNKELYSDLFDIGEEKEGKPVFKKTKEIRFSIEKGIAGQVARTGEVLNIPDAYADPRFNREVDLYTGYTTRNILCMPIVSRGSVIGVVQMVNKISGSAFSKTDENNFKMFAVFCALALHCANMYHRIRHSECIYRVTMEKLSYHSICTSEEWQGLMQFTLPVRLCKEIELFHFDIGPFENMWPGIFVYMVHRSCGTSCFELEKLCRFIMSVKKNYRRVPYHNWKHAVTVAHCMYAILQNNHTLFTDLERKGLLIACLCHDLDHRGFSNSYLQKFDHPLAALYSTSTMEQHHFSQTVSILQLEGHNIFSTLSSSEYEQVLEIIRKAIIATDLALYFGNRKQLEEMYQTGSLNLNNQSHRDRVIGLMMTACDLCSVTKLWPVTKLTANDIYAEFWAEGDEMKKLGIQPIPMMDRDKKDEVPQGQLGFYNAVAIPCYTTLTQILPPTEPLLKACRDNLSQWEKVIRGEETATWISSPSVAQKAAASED
Type: biochemical
Method: The following test was carried out in order to determine the activity of the compounds of the present invention. PDE10 activity of the compounds of the present invention was determined using a Scintillation Proximity Assay (SPA)-based method similar to the one previously described (Fawcett, L. et al., Proc Natl Acad Sci USA (2000) 97(7):3702-3707).
The human PDE10A full length assay was performed in 96-well micro titer plates. The reaction mixture of 50 μl contained 20 mM HEPES pH=7.5/10 mM MgCl2/0.05 mg/ml BSA (Sigma cat. #A-7906), 50 nM cGMP (Sigma, cat. #G6129) and 50 nM [^3H]-cGMP (GE Healthcare, cat. #TRK392 S.A. 13.2Ci/mmol), 3.75 ng/well PDE10A enzyme (Enzo Life Science, Lausen, Switzerland cat #SE-534) with or without a specific test compound. A range of concentrations of the potential inhibitor was used to generate data for calculating the concentration of inhibitor resulting in 50% of the effect (e.g. IC50, the concentration of the competitor inhibiting PDE10A activity by 50%). Non-specific activity was tested without the enzyme. The reaction was initiated by the addition of the substrate solution (cGMP and [^3H]-cGMP) and allowed to progress for 20 minutes at room temperature. The reaction was terminated by adding 25 μl of YSi-SPA scintillation beads (GE Healthcare, cat. #RPNQ0150) in 18 mM zinc sulphate solution (stop reagent). After 1 h under shaking, the plate was centrifuged one minute at 170 g to allow beads to settle. Afterwards, radioactive counts were measured on a Perkin Elmer TopCount Scintillation plate reader.
Work on COCCN(C)C(=O)c1cnn(C)c1C(=O)Nc1ccn2nc(-c3cccc(OCF)c3)nc2c1 [Example 89, 2-Methyl-2H-pyrazole-3,4-dicarboxylic acid 3-{[2-(3-fluoromethoxy-phenyl)-[1,2,4]triazolo[1,5-a]pyridin-7-yl]-amide} 4-[(2-methoxy-ethyl)-methyl-amide]] yielded an IC50 of 0.59 nM. Compound Cn1ncc(C(=O)N2CCC2)c1C(=O)Nc1ccn2nc(-c3cccc(OCCF)c3)nc2c1 [Example 90, 4-(Azetidine-1-carbonyl)-2-methyl-2H-pyrazole-3-carboxylic acid {2-[3-(2-fluoro-ethoxy)-phenyl]-[1,2,4]triazolo[1,5-a]pyridin-7-yl}-amide] has an IC50 of 1.02 nM. For Cn1ncc(C(=O)N2CCC2)c1C(=O)Nc1ccn2nc(-c3cccc(OCF)c3)nc2c1 [Example 91, 4-(Azetidine-1-carbonyl)-2-methyl-2H-pyrazole-3-carboxylic acid [2-(3-fluoromethoxy-phenyl)-[1,2,4]triazolo[1,5-a]pyridin-7-yl]-amide], the IC50 was 0.86 nM. In the case of CN(CCO)C(=O)c1cnn(C)c1C(=O)Nc1ccn2nc(-c3ccccc3)nc2c1 [Example 92, 2-Methyl-2H-pyrazole-3,4-dicarboxylic acid 4-[(2-hydroxy-ethyl)-methyl-amide]3-[(2-phenyl-[1,2,4]triazolo[1,5-a]pyridin-7-yl)-amide]], the IC50 is reported as 0.98 nM. In the case of COC(=O)CN(C)C(=O)c1cnn(C)c1C(=O)Nc1ccn2nc(-c3ccccc3)nc2c1 [Example 93, {Methyl-[1-methyl-5-(2-phenyl-[1,2,4]triazolo[1,5-a]pyridin-7-ylcarbamoyl)-1H-pyrazole-4-carbonyl]-amino}-acetic acid methyl ester], the IC50 is reported as 2.16 nM. In the case of CN(CCO)C(=O)c1cnn(C)c1C(=O)Nc1ccn2nc(N3CCOCC3)nc2c1 [Example 94, 2-Methyl-2H-pyrazole-3,4-dicarboxylic acid 4-[(2-hydroxy-ethyl)-methyl-amide]3-[(2-morpholin-4-yl-[1,2,4]triazolo[1,5-a]pyridin-7-yl)-amide]], the IC50 is reported as 20.4 nM. Work on COC(=O)CN(C)C(=O)c1cnn(C)c1C(=O)Nc1ccn2nc(N3CCOCC3)nc2c1 [Example 95, {Methyl-[1-methyl-5-(2-morpholin-4-yl-[1,2,4]triazolo[1,5-a]pyridin-7-ylcarbamoyl)-1H-pyrazole-4-carbonyl]-amino}-acetic acid methyl ester] yielded an IC50 of 50.4 nM. For Cn1ncc(C(=O)NCCF)c1C(=O)Nc1ccn2nc(-c3ccccc3)nc2c1 [Example 96, 2-Methyl-2H-pyrazole-3,4-dicarboxylic acid 4-[(2-fluoro-ethyl)-amide]3-[(2-phenyl[1,2,4]triazolo[1,5-a]pyridin-7-yl)-amide]], the IC50 was 2.12 nM. With COc1ccccc1-c1nc2cc(NC(=O)c3c(C(=O)N(C)C)cnn3C)ccn2n1 [Example 97, 2-Methyl-2H-pyrazole-3,4-dicarboxylic acid 4-dimethylamide 3-{[2-(2-methoxy-phenyl)-[1,2,4]triazolo[1,5-a]pyridin-7-yl]-amide}] the IC50 was 0.31 nM. With CCN(C)C(=O)c1cnn(C)c1C(=O)Nc1ccn2nc(-c3ccccc3OC)nc2c1 [Example 98, 2-Methyl-2H-pyrazole-3,4-dicarboxylic acid 4-(ethyl-methyl-amide)3-{[2-(2-methoxy-phenyl)-[1,2,4]triazolo[1,5-a]pyridin-7-yl]-amide}] the IC50 was 0.67 nM. COCCN(C)C(=O)c1cnn(C)c1C(=O)Nc1ccn2nc(-c3ccccc3OC)nc2c1 [Example 99, 2-Methyl-2H-pyrazole-3,4-dicarboxylic acid 4-[(2-methoxy-ethyl)-methyl-amide]3-{[2-(2-methoxy-phenyl)-[1,2,4]triazolo[1,5-a]pyridin-7-yl]-amide}] showed an IC50 of 0.74 nM. For CCN(C)C(=O)c1cnn(C)c1C(=O)Nc1ccn2nc(-c3ccccc3OCCF)nc2c1 [Example 101, 2-Methyl-2H-pyrazole-3,4-dicarboxylic acid 4-(ethyl-methyl-amide)3-({2-[2-(2-fluoro-ethoxy)-phenyl]-[1,2,4]triazolo[1,5-a]pyridin-7-yl}-amide)], the IC50 was 0.65 nM. Work on CN1CCN(C(=O)c2cnn(C)c2C(=O)Nc2ccn3nc(-c4cccc(F)c4)nc3c2)CC1 [Example 108, 2-Methyl-4-(4-methyl-piperazine-1-carbonyl)-2H-pyrazole-3-carboxylic acid [2-(3-fluoro-phenyl)-[1,2,4]triazolo[1,5-a]pyridin-7-yl]-amide] yielded an IC50 of 15.6 nM. Cn1ncc(C(=O)N2CCC2)c1C(=O)Nc1ccn2nc(-c3cccnc3F)nc2c1 [Example 110, 4-(Azetidine-1-carbonyl)-2-methyl-2H-pyrazole-3-carboxylic acid [2-(2-fluoro-pyridin-3-yl)-[1,2,4]triazolo[1,5-a]pyridin-7-yl]-amide] was tested, and the IC50 was 4.66 nM. Cn1ncc(C(=O)NC2CC2)c1C(=O)Nc1ccn2nc(N3CCOCC3)nc2c1 [Example 113, 2-Methyl-2H-pyrazole-3,4-dicarboxylic acid 4-cyclopropylamide 3-[(2-morpholin-4-yl-[1,2,4]triazolo[1,5-a]pyridin-7-yl)-amide]] showed an IC50 of 19.1 nM. For CN(CCF)c1nc2cc(NC(=O)c3c(C(=O)N4CCCC4)cnn3C)ccn2n1 [Example 115, 2-Methyl-4-(pyrrolidine-1-carbonyl)-2H-pyrazole-3-carboxylic acid {2-[(2-fluoro-ethyl)-methyl-amino]-[1,2,4]triazolo[1,5-a]pyridin-7-yl}-amide], the IC50 was 2.29 nM. CCN(C)C(=O)c1cnn(C)c1C(=O)Nc1ccn2nc(-c3cccnc3)nc2c1 [Example 116, 2-Methyl-2H-pyrazole-3,4-dicarboxylic acid 4-(ethyl-methyl-amide)3-[(2-pyridin-3-yl-[1,2,4]triazolo[1,5-a]pyridin-7-yl)-amide]] gave an IC50 of 1.11 nM. Cn1ncc(C(=O)N2CCOCC2)c1C(=O)Nc1ccn2nc(-c3cccc(F)n3)nc2c1 [Example 121, 2-Methyl-4-(morpholine-4-carbonyl)-2H-pyrazole-3-carboxylic acid [2-(6-fluoro-pyridin-2-yl)-[1,2,4]triazolo[1,5-a]pyridin-7-yl]-amide] showed an IC50 of 5.06 nM. For Cn1ncc(C(=O)N2CC3(COC3)C2)c1C(=O)Nc1ccn2nc(N3CCCC3)nc2c1 [Example 122, 2-Methyl-4-(2-oxa-6-aza-spiro[3.3]heptane-6-carbonyl)-2H-pyrazole-3-carboxylic acid (2-pyrrolidin-1-yl-[1,2,4]triazolo[1,5-a]pyridin-7-yl)-amide], the IC50 was 6.21 nM. Compound CN(c1nc2cc(NC(=O)c3c(C(=O)O)cnn3C)ccn2n1)C1CC1 [Example 125, 5-[2-(Cyclopropyl-methyl-amino)-[1,2,4]triazolo[1,5-a]pyridin-7-ylcarbamoyl]-1-methyl-1H-pyrazole-4-carboxylic acid] has an IC50 of 54 nM. Compound CN(C(=O)c1cnn(C)c1C(=O)Nc1ccn2nc(N(C)C3CC3)nc2c1)C1CC1 [Example 126, 2-Methyl-2H-pyrazole-3,4-dicarboxylic acid 4-(cyclopropyl-methyl-amide)3-{[2-(cyclopropyl-methyl-amino)-[1,2,4]triazolo[1,5-a]pyridin-7-yl]-amide}] has an IC50 of 0.49 nM. CN(c1nc2cc(NC(=O)c3c(C(=O)N4CCC4)cnn3C)ccn2n1)C1CC1 [Example 127, 4-(Azetidine-1-carbonyl)-2-methyl-2H-pyrazole-3-carboxylic acid [2-(cyclopropyl-methyl-amino)-[1,2,4]triazolo[1,5-a]pyridin-7-yl]-amide] gave an IC50 of 0.73 nM.
